Assay results published in ChEMBL document CHEMBL1201862, “PubChem BioAssay data set” (2004).
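1) Cells in 96-well plates. 2) Compound, 48 h, 5 concentrations. 3) Linear interpolation between surrounding doses. 4) Unreached endpoint = highest concentration. At the GI50, growth is halved.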 The source made the active and inactive calls. Rule as the data show it: active = GI50 up to about 1.1 µM and inactive = higher.

Tests used:
Assay in all cases: inhibition of tumour cell growth, NCI panel, 48 h
SK-MEL-2 = system: SK-MEL-2
Malme-3M = system: Malme-3M
RPMI-8226 = system: RPMI-8226
RXF 393 = system: RXF 393
LOX IMVI = system: LOX IMVI
HOP-92 = system: HOP-92
M19-MEL = system: M19-MEL
UACC-257 = system: UACC-257
SK-MEL-28 = system: SK-MEL-28
OVCAR-4 = system: OVCAR-4
CAKI-1 = system: CAKI-1
A549 = system: A549
U-251 = system: U-251
EKVX = system: EKVX
786-0 = system: 786-0
A498 = system: A498
HOP-62 = system: HOP-62
HCT-15 = system: HCT-15
NCI-H460 = system: NCI-H460
SF-295 = system: SF-295
IGROV-1 = system: IGROV-1
UACC-62 = system: UACC-62
MOLT-4 = system: MOLT-4
HT-29 = system: HT-29
SN12C = system: SN12C
SK-MEL-5 = system: SK-MEL-5
NCI-H23 = system: NCI-H23
OVCAR-5 = system: OVCAR-5
HL-60 = system: HL-60
HCT-116 = system: HCT-116
TK-10 = system: TK-10
HCC 2998 = system: HCC 2998
K562 = system: K562
DMS-273 = system: DMS-273
DMS-114 = system: DMS-114
SNB-75 = system: SNB-75
DLD-1 = system: DLD-1
M14 = system: M14
ACHN = system: ACHN
COLO 205 = system: COLO 205
UO-31 = system: UO-31
LXFL 529 = system: LXFL 529
SW-620 = system: SW-620
SNB-78 = system: SNB-78
SK-OV-3 = system: SK-OV-3
OVCAR-3 = system: OVCAR-3
OVCAR-8 = system: OVCAR-8
SF-539 = system: SF-539
KM12 = system: KM12
SF-268 = system: SF-268
SNB-19 = system: SNB-19
NCI-H522 = system: NCI-H522
CCRF-CEM = system: CCRF-CEM
XF498 = system: XF498
KM-20L2 = system: KM-20L2
HOP-18 = system: HOP-18
NCI-H226 = system: NCI-H226
SR = system: SR
DU-145 = system: DU-145

## Cc1ccccc1C(CCCO)C(=O)O (centres undefined)
SK-MEL-2
  GI50: > 100 µM (inactive)
Malme-3M
  GI50: > 100 µM (inactive)
RPMI-8226
  GI50: > 100 µM (inactive)
RXF 393
  GI50: > 100 µM (inactive)
LOX IMVI
  GI50: > 100 µM (inactive)
HOP-92
  GI50: > 100 µM (inactive)
M19-MEL
  GI50: > 100 µM (inactive)
UACC-257
  GI50: > 100 µM (inactive)
SK-MEL-28
  GI50: > 100 µM (inactive)
OVCAR-4
  GI50: > 100 µM (inactive)
CAKI-1
  GI50: > 100 µM (inactive)
A549
  GI50: > 100 µM (inactive)
U-251
  GI50: > 100 µM (inactive)
EKVX
  GI50: > 100 µM (inactive)
786-0
  GI50: > 100 µM (inactive)
A498
  GI50: > 100 µM (inactive)
HOP-62
  GI50: > 100 µM (inactive)
HCT-15
  GI50: > 100 µM
NCI-H460
  GI50: > 100 µM (inactive)
SF-295
  GI50: > 100 µM (inactive)
IGROV-1
  GI50: > 100 µM (inactive)
UACC-62
  GI50: > 100 µM (inactive)
MOLT-4
  GI50: > 100 µM (inactive)
HT-29
  GI50: > 100 µM (inactive)
SN12C
  GI50: > 100 µM (inactive)
SK-MEL-5
  GI50: > 100 µM (inactive)
NCI-H23
  GI50: > 100 µM (inactive)
OVCAR-5
  GI50: > 100 µM (inactive)
HL-60
  GI50: > 100 µM (inactive)
HCT-116
  GI50: > 100 µM (inactive)
TK-10
  GI50: > 100 µM (inactive)
HCC 2998
  GI50: > 10 µM (inactive)
K562
  GI50: > 100 µM (inactive)
DMS-273
  GI50: > 100 µM (inactive)
DMS-114
  GI50: > 100 µM (inactive)
SNB-75
  GI50: > 100 µM (inactive)
DLD-1
  GI50: > 100 µM (inactive)
M14
  GI50: > 100 µM (inactive)
ACHN
  GI50: > 100 µM (inactive)
COLO 205
  GI50: > 100 µM (inactive)
UO-31
  GI50: > 100 µM (inactive)
LXFL 529
  GI50: > 100 µM (inactive)
SW-620
  GI50: > 100 µM (inactive)
SNB-78
  GI50: > 100 µM (inactive)
SK-OV-3
  GI50: > 100 µM (inactive)
OVCAR-3
  GI50: > 100 µM (inactive)
OVCAR-8
  GI50: > 100 µM (inactive)
SF-539
  GI50: > 100 µM (inactive)
KM12
  GI50: > 100 µM (inactive)
SF-268
  GI50: > 100 µM (inactive)
SNB-19
  GI50: > 100 µM (inactive)
NCI-H522
  GI50: > 100 µM (inactive)
CCRF-CEM
  GI50: > 100 µM (inactive)
XF498
  GI50: > 100 µM (inactive)

## O=C1[C@H]2ON(c3ccccc3)C(c3cccc([N+](=O)[O-])c3)[C@H]2C(=O)N1c1ccc(Cc2ccc(N3C(=O)[C@@H]4ON(c5ccccc5)C(c5cccc([N+](=O)[O-])c5)[C@@H]4C3=O)cc2)cc1 (some centres undefined)
SK-MEL-2
  GI50: > 100 µM (inactive)
Malme-3M
  GI50: 75 µM (inactive)
RPMI-8226
  GI50: > 100 µM (inactive)
RXF 393
  GI50: > 100 µM (inactive)
LOX IMVI
  GI50: > 100 µM (inactive)
M19-MEL
  GI50: > 100 µM (inactive)
UACC-257
  GI50: > 100 µM (inactive)
SK-MEL-28
  GI50: > 100 µM (inactive)
OVCAR-4
  GI50: > 100 µM (inactive)
CAKI-1
  GI50: 38.6 µM (inactive)
A549
  GI50: > 100 µM (inactive)
U-251
  GI50: > 100 µM (inactive)
KM-20L2
  GI50: > 100 µM (inactive)
EKVX
  GI50: > 100 µM (inactive)
786-0
  GI50: > 100 µM (inactive)
A498
  GI50: 36.5 µM (inactive)
HOP-62
  GI50: > 100 µM (inactive)
HCT-15
  GI50: > 100 µM
NCI-H460
  GI50: > 100 µM (inactive)
HOP-18
  GI50: > 100 µM (inactive)
SF-295
  GI50: > 100 µM (inactive)
IGROV-1
  GI50: > 100 µM (inactive)
UACC-62
  GI50: 47.4 µM (inactive)
MOLT-4
  GI50: > 100 µM (inactive)
HT-29
  GI50: > 100 µM (inactive)
SN12C
  GI50: > 100 µM (inactive)
NCI-H226
  GI50: > 100 µM (inactive)
SK-MEL-5
  GI50: 43.9 µM (inactive)
NCI-H23
  GI50: > 100 µM (inactive)
OVCAR-5
  GI50: > 100 µM (inactive)
HL-60
  GI50: > 100 µM (inactive)
HCT-116
  GI50: > 100 µM (inactive)
TK-10
  GI50: > 100 µM (inactive)
HCC 2998
  GI50: > 100 µM (inactive)
K562
  GI50: > 100 µM (inactive)
SR
  GI50: > 100 µM (inactive)
DMS-273
  GI50: > 100 µM (inactive)
DMS-114
  GI50: > 100 µM (inactive)
SNB-75
  GI50: > 100 µM (inactive)
DLD-1
  GI50: > 100 µM (inactive)
M14
  GI50: 21.6 µM (inactive)
ACHN
  GI50: > 100 µM (inactive)
COLO 205
  GI50: 42.3 µM (inactive)
UO-31
  GI50: > 100 µM (inactive)
LXFL 529
  GI50: > 100 µM (inactive)
SW-620
  GI50: > 100 µM (inactive)
SNB-78
  GI50: > 100 µM (inactive)
SK-OV-3
  GI50: > 100 µM (inactive)
OVCAR-3
  GI50: > 100 µM (inactive)
OVCAR-8
  GI50: > 100 µM (inactive)
SF-539
  GI50: > 100 µM (inactive)
KM12
  GI50: > 100 µM (inactive)
SF-268
  GI50: > 100 µM (inactive)
SNB-19
  GI50: > 100 µM (inactive)
NCI-H522
  GI50: > 100 µM (inactive)
CCRF-CEM
  GI50: > 100 µM (inactive)

## COC(=O)C1=C(C(=O)OC)C23CC4CCC2(C(=O)C1O3)C4(C)C (centres undefined)
SK-MEL-2
  GI50: > 100 µM (inactive)
Malme-3M
  GI50: > 100 µM (inactive)
RPMI-8226
  GI50: 34.1 µM (inactive)
RXF 393
  GI50: 58.5 µM (inactive)
LOX IMVI
  GI50: 84.5 µM (inactive)
HOP-92
  GI50: 48.5 µM (inactive)
M19-MEL
  GI50: > 100 µM (inactive)
UACC-257
  GI50: > 100 µM (inactive)
SK-MEL-28
  GI50: > 100 µM (inactive)
OVCAR-4
  GI50: > 100 µM (inactive)
CAKI-1
  GI50: > 100 µM (inactive)
A549
  GI50: > 100 µM (inactive)
U-251
  GI50: > 100 µM (inactive)
KM-20L2
  GI50: > 100 µM (inactive)
786-0
  GI50: > 100 µM (inactive)
A498
  GI50: > 100 µM (inactive)
DU-145
  GI50: > 100 µM (inactive)
HCT-15
  GI50: > 100 µM
NCI-H460
  GI50: > 100 µM (inactive)
HOP-18
  GI50: 95.9 µM (inactive)
SF-295
  GI50: 95.1 µM (inactive)
IGROV-1
  GI50: > 100 µM (inactive)
UACC-62
  GI50: 73.1 µM (inactive)
MOLT-4
  GI50: 30.4 µM (inactive)
HT-29
  GI50: > 100 µM (inactive)
SN12C
  GI50: > 100 µM (inactive)
NCI-H226
  GI50: > 100 µM (inactive)
SK-MEL-5
  GI50: > 100 µM (inactive)
NCI-H23
  GI50: > 100 µM (inactive)
OVCAR-5
  GI50: > 100 µM (inactive)
HL-60
  GI50: 21.2 µM (inactive)
HCT-116
  GI50: 51.8 µM (inactive)
TK-10
  GI50: > 100 µM (inactive)
HCC 2998
  GI50: > 100 µM (inactive)
K562
  GI50: 56.2 µM (inactive)
SR
  GI50: 26.7 µM (inactive)
SNB-75
  GI50: 53.8 µM (inactive)
DLD-1
  GI50: 57.1 µM (inactive)
M14
  GI50: > 100 µM (inactive)
ACHN
  GI50: > 100 µM (inactive)
COLO 205
  GI50: > 100 µM (inactive)
UO-31
  GI50: > 100 µM (inactive)
LXFL 529
  GI50: > 100 µM (inactive)
SW-620
  GI50: 78.3 µM (inactive)
SK-OV-3
  GI50: > 100 µM (inactive)
OVCAR-3
  GI50: > 100 µM (inactive)
OVCAR-8
  GI50: > 100 µM (inactive)
SF-539
  GI50: > 100 µM (inactive)
KM12
  GI50: > 100 µM (inactive)
SF-268
  GI50: 94.4 µM (inactive)
SNB-19
  GI50: > 100 µM (inactive)
NCI-H522
  GI50: 22 µM (inactive)
CCRF-CEM
  GI50: 22.1 µM (inactive)
XF498
  GI50: > 100 µM (inactive)
